{
  "source": "ChEMBL document CHEMBL1150938",
  "about": "“Recent natural products based drug development: a pharmaceutical industry perspective” (J Nat Prod, 1998)",
  "key": {"[1]": {"system": "Homo sapiens", "assay": "Inhibition of fractional cholesterol absorption in normolipidemic human at 300 mg administered twice daily for 2 weeks", "type": "functional", "design": "scale not given: the % may be the effect or the level left"}, "[2]": {"system": "Homo sapiens", "assay": "Reduction in serum LDL-cholesterol level in normolipidemic human at 300 mg administered twice daily for 2 weeks", "type": "functional", "design": "scale not given: the % may be the effect or the level left"}},
  "data": [
    {"smiles": "C[C@@H]1CC[C@@]2(OC1)O[C@H]1C[C@H]3[C@@H]4CC[C@H]5C[C@@H](O[C@@H]6O[C@H](CO)[C@@H](O[C@@H]7O[C@H](CO)[C@@H](O)[C@H](O)[C@H]7O)[C@H](O)[C@H]6O)CC[C@]5(C)[C@H]4C(=O)C[C@]3(C)[C@H]1[C@@H]2C", "note": "[PAMAQUESIDE]", "values": [
      {"measurement": "Activity", "setting": "[1]", "result": 35, "unit": "%"},
      {"measurement": "Activity", "setting": "[2]", "result": 10, "unit": "%"}
    ]}
  ]
}
